Measured values as given in patent publication US11267797B2, “Anticancer agent” (Kyoto Pharmaceutical Industries, Ltd., priority 2014, dated 2022).
Where a name gives a salt, the structure may show the parent alone.

Assay: Blood concentration after oral administration to rat or dog
Format: in vivo
Details: gavage to male SD rat or male beagle, suspended in 0.5% methylcellulose, 30 mg/kg or 100 mg/kg, respectively, HPLC or LC-MS/MS; for blood concentration of compound (A) after administration of the Example compound: 0.25-24 hr
Protocol: Experimental Example 2: Blood Concentration after Oral Administration to Rat or Dog
Compound (A) or Example compound suspended in 0.5% methylcellulose solution was administered by gavage to male SD rat or male beagle at a dose of 30 mg/kg or 100 mg/kg, respectively. At 0.25, 0.5, 1, 2, 4, 6 and 24 hr after administration, blood samples were collected from the cervical vein with a 1 mL syringe and was added in a 2.0 mL tube to which heparin was added. The blood was treated with acetonitrile, and the blood concentration of compound (A) was determined by using HPLC or LC-MS/MS.

Row | Structure (SMILES) | blood concentration of compound (A) after administration of the Example compound | maximum blood concentration of compound (A), compared with administration of compound (A) itself
1 | COCCOC(=O)CC(=O)c1cc2c(o1)C(=O)c1ccccc1C2=O [Example 79] | emerged in the blood over time | higher
2 | O=C(/C=C(\O)c1cc2c(o1)C(=O)c1ccccc1C2=O)OCCO [Example 13, 2-Hydroxyethyl 3-(4,9-dioxo-4,9-dihydro-naphtho[2,3-b]furan-2-yl)-3-hydroxy-acrylate Ethanolamine Salt] | emerged in the blood over time | higher
3 | O=C(/C=C(\[O-])c1cc2c(o1)C(=O)c1ccccc1C2=O)OCC(O)CO.[Na+] (stereo not drawn) [Example 88] | emerged in the blood over time | higher
4 | O=C(CC(=O)c1cc2c(o1)C(=O)c1ccccc1C2=O)OCOC(=O)C(O)CO (stereo not drawn) [Example 60] | emerged in the blood over time | higher
5 | CC(OC(=O)CC(=O)c1cc2c(o1)C(=O)c1ccccc1C2=O)OC(=O)OC[C@@H](O)CO (stereo partly drawn) [Example 65] | emerged in the blood over time | higher
6 | COCC(C)(C)C(=O)OC(C)OC(=O)CC(=O)c1cc2c(o1)C(=O)c1ccccc1C2=O (stereo not drawn) [Example 54] | emerged in the blood over time | higher
7 | C[C@H](N)C(=O)OCCOC(=O)CC(=O)c1cc2c(o1)C(=O)c1ccccc1C2=O.Cl [Example 74] | emerged in the blood over time | higher
8 | CCN(CC)CC#CCOC(=O)CC(=O)c1cc2c(o1)C(=O)c1ccccc1C2=O.Cl [Example 93] | emerged in the blood over time | higher
9 | CC(OC(=O)CC(=O)c1cc2c(o1)C(=O)c1ccccc1C2=O)OC(=O)OCC1COC(C)(C)O1 (stereo not drawn) [Example 66] | emerged in the blood over time | higher
10 | N[C@@H](CO)C(=O)OCCOC(=O)CC(=O)c1cc2c(o1)C(=O)c1ccccc1C2=O [Example 75] | emerged in the blood over time | higher

Next, values leading:

Row | blood concentration of compound (A) after administration of the Example compound | maximum blood concentration of compound (A), compared with administration of compound (A) itself | Structure (SMILES)
11 | emerged in the blood over time | higher | O=C(/C=C(\O)c1cc2c(o1)C(=O)c1ccccc1C2=O)OCCOCCO [Example 125]
12 | emerged in the blood over time | higher | O=C(/C=C(\O)c1cc2c(o1)C(=O)c1ccccc1C2=O)OCCOCC(O)CO (stereo not drawn) [Example 129]
13 | emerged in the blood over time | higher | O=C(/C=C(\O)c1cc2c(o1)C(=O)c1ccccc1C2=O)OCCCO [Example 133]
14 | emerged in the blood over time | higher | Cl.O=C(CC(=O)c1cc2c(o1)C(=O)c1ccccc1C2=O)OCC#CCN1CCCC1 [Example 116]
15 | emerged in the blood over time | higher | CC(C)[C@H](N)C(=O)OCCCOC(=O)CC(=O)c1cc2c(o1)C(=O)c1ccccc1C2=O.Cl [Example 120]
16 | emerged in the blood over time | higher | O=C(/C=C(\O)c1cc2c(o1)C(=O)c1ccccc1C2=O)OCC(O)CO (stereo not drawn) [Example 95]
17 | emerged in the blood over time | higher | CC(C)N1CC(OC(=O)CC(=O)c2cc3c(o2)C(=O)c2ccccc2C3=O)C1.Cl [Example 114]
18 | emerged in the blood over time | higher | O=C(/C=C(\O)c1cc2c(o1)C(=O)c1ccccc1C2=O)OCC(CO)CO [Example 126]
